Test results from the NIST ThermoML archive (doi:10.1016/j.jct.2004.12.002).
Numbers after ± are expanded uncertainties.

Tests used:
[1] = 101 kPa, Liquid
[2] = xn = mol fraction of the nth substance listed; settings: 101 kPa, Liquid, x1 = 1

mass density ([1]; 293.22 K) | mass density ([1]; 298.16 K) | mass density ([1]; 303.17 K) | mass density ([1]; 308.17 K) | mass density ([1]; 313.17 K) | mass density ([1]; 318.18 K) | mass density ([2]; 293.22 K) | mass density ([2]; 298.16 K) | mass density ([2]; 303.17 K) | mass density ([2]; 308.17 K) | mass density ([2]; 313.17 K) | mass density ([2]; 318.18 K) | SMILES
789.54 ± 0.47 kg/m3 | 785.46 ± 0.47 kg/m3 | 781.05 ± 0.48 kg/m3 | 776.75 ± 0.49 kg/m3 | 772.42 ± 0.49 kg/m3 | 768 ± 0.5 kg/m3 | – | – | – | – | – | – | CCO [ethanol]
– | – | – | – | – | – | 789.54 ± 0.47 kg/m3 | 785.46 ± 0.47 kg/m3 | 781.05 ± 0.48 kg/m3 | 776.75 ± 0.49 kg/m3 | 772.42 ± 0.49 kg/m3 | 768 ± 0.5 kg/m3 | CCO [ethanol] + CCCCCCC
683.82 ± 0.65 kg/m3 | 679.75 ± 0.65 kg/m3 | 675.51 ± 0.66 kg/m3 | 671.21 ± 0.67 kg/m3 | 666.97 ± 0.67 kg/m3 | 662.67 ± 0.68 kg/m3 | – | – | – | – | – | – | CCCCCCC [heptane]
